In publication PMC5797708 (SLAS discovery : advancing life sciences R & D, 2017):
Like-named read-outs stand apart in the source and are kept apart here.

What was measured:
[1] = test system: pre-miR-21; experiment: cat-ELCCA for Dicer-mediated pre-miRNA maturation; assay type: biochemical; conditions: for hit in HTS for inhibition of Dicer-mediated pre-miR-21 maturation: primary and confirmation screens at 25 µM, CRCs from 3.3 to 120 µM
[2] = test system: pre-miR-21; conditions: previously shown; cited from earlier work

## NC[C@H]1O[C@H](O[C@H]2[C@H](O)[C@@H](O[C@H]3O[C@H](CO)[C@@H](O)[C@H](N)[C@H]3O)[C@H](N)C[C@@H]2N)[C@H](O)[C@@H](O)[C@@H]1O [kanamycin]
[1]; data not shown
  inhibition of Dicer-mediated pre-miR-21 maturation: do not inhibit

## C=C1c2c(Cl)ccc(O)c2C(=O)C2=C(O)[C@]3(O)C(=O)C(C(N)=O)=C(O)[C@@H](N(C)C)[C@@H]3[C@@H](O)[C@H]12 [meclocycline]
[1]
  hit in HTS for inhibition of Dicer-mediated pre-miR-21 maturation: emerged as hits

## C=C1c2cccc(O)c2C(=O)C2=C(O)[C@]3(O)C(=O)C(C(N)=O)=C(O)[C@@H](N(C)C)[C@@H]3[C@@H](O)[C@H]12 [methacycline]
[1]
  hit in HTS for inhibition of Dicer-mediated pre-miR-21 maturation: emerged as hits

## CN(C)c1ccc(O)c2c1C[C@H]1C[C@H]3[C@H](N(C)C)C(O)=C(C(N)=O)C(=O)[C@@]3(O)C(O)=C1C2=O [minocycline]
[1]
  hit in HTS for inhibition of Dicer-mediated pre-miR-21 maturation: emerged as hits

## [H]/N=C(/N)N[C@H]1[C@H](O)[C@@H](O)[C@H](O[C@@H]2O[C@@H](C)[C@](O)(C=O)[C@H]2O[C@@H]2O[C@@H](CO)[C@H](O)[C@@H](O)[C@@H]2NC)[C@@H](N/C(N)=N\[H])[C@@H]1O [streptomycin]
[2]
  inhibition of Dicer-mediated pre-miR-21 maturation: do not inhibit
